Data: patent US11420975B2, “Substituted imidazo[1,5-a]pyrazines as Bruton's tyrosine kinase inhibitors” (TRANSTHERA SCIENCES (NANJING), INC., priority 2018, dated 2022)

Key:
TMD-8 = assay: In vitro tumor cell proliferation inhibition, TMD-8 (CellTiter-Glo); format: cell-based; conditions: Homo sapiens, TMD8; TMD-8 cells, 72 h
Procedure: (1) Method • The tumor cell line (TMD-8/OCY-LY10) was suspended in RPMI1640+FBS10% and cultured in an incubator (37° C., 5% CO2). Cells were passaged periodically, and cells at logarithmic growth phase were collected for plating. • Cell staining was performed with trypan blue and viable cells were counted. • Cell concentration was adjusted to 7000 cells/well with medium. • 90 μL of cell suspension was added to a 96-well plate and cell-free culture medium was added to the blank control wells. • Cells in the 96-well plate were incubated overnight in an incubator (37° C., 5% CO2, 100% relative humidity). • Preparation of 400× compound storage plates: test compounds and reference drug were each dissolved in DMSO and 3× diluted from the highest concentration (400 μM) to the lowest concentration (0.61 μM). • Preparation of 10× compound working solutions: 78 μL of cell culture medium was added to a V-bottom 96-well plate, and 2 μL of the compound was pipetted from the 400× compound storage plate into the 96-well plate. Vehicle control wells and blank control wells were added with 2 μL of DMSO. […] Inhibition rates of compounds at different concentrations were calculated in Excel, followed by plotting the inhibition curves and calculating IC50 values with GraphPad Prism.

[1] = Pharmacokinetic study in male SD rats, intragastric; format: in vivo; conditions: rat, 5 mg/kg
Procedure: Male SD rats were fasted overnight before test. The test drugs were each suspended in a solution of 0.5% methylcellulose (MC) and 0.1% SDS in deionized water (w/w/v), and the suspension, each at a concentration of 1 mg/mL, was administered intragastrically at 5 mL/kg. At 15 min, 30 min, 1 h, 2 h, 4 h, 6 h, 8 h and 24 h after administration, approximately 0.4 mL of whole blood was collected from the orbital venous plexus of the animals and then placed in heparin anticoagulant tubes. Three animals were sampled at each time point and then put to death, and thus sample collection was completed on different individuals. The whole blood sample would be centrifuged within 15 min and centrifuged at 4° C./4200 rpm for 5 min. All plasma samples were stored in a refrigerator at −80±15° C. prior to analysis. An LC-MS/MS (Waters I Class UPLC-Xevo TQD tandem mass spectrometry) assay for the compounds was established prior to sample analysis. The collected plasma was quantitatively analyzed, plasma concentration-time data of animals were analyzed using WinNonlin (professional edition, version 5.2) software, a non-compartmental model was used for concentration analysis, and the pharmacokinetic parameters of the test compounds were calculated.

[2] = Pharmacokinetic study in male beagle dogs, intragastric; format: in vivo; conditions: dog, 5 mg/kg
Procedure: Three adult male beagle dogs were fasted overnight before test. The test drugs were each suspended in a solution of 0.5% methylcellulose (MC) and 0.1% SDS in deionized water (w/w/v), and the suspension, each at a concentration of 1 mg/mL, was administered intragastrically at 5 mL/kg. Blood was collected 15 min, 30 min, 1 h, 2 h, 4 h, 6 h, 8 h and 24 h after administration. Animals were lightly anesthetized with chloral hydrate, and approximately 0.5 mL of whole blood was collected from the forelimb vein using a glass blood collection tube and placed in a heparin anticoagulant tube. The sample was centrifuged at 4° C./4200 rpm for 5 min. All plasma samples were stored in a refrigerator at −80±15° C. prior to analysis. An LC-MS/MS (Waters I Class UPLC-Xevo TQD tandem mass spectrometry) assay for the compounds was established prior to sample analysis. The collected plasma was quantitatively analyzed, plasma concentration-time data of animals were analyzed using WinNonlin (professional edition, version 5.2) software, a non-compartmental model was used for concentration analysis, and the pharmacokinetic parameters of the test compounds were calculated.

BTK(wt) = BTK(wt) (Homo sapiens (Human), UniProt Q06187); assay: pBTK inhibition in HEK293 cells transfected with BTK(wt) (ELISA); format: cell-based; conditions: 2 h
Procedure: For positive (high signal) controls, cells were treated with 0.5% DMSO alone. […] The absorbance was read at 450 nm. • Based on the absorbance readings of the positive and negative control values, the % inhibition value was calculated according to the following formula: (% INH=((positive control−sample)/(positive control−negative control))×100. • The Z′ value was calculated based on the following formula: 1−((3×standard deviation of positive+3×standard deviation of negative)/(mean positive−mean negative)). • The […] was plotted using GraphPad Prism. • IC50 values were determined after sigmoidal dose-response curve fitting.

OCI-LY10 xenograft tumor = OCI-LY10 xenograft tumor model; format: in vivo; conditions: for TGI: bid
Procedure: CB17/SCID female mice with serious immune deficiency were purchased from Beijing Vital River Laboratory Animal Technology Co., Ltd. and bred in SPF animal houses. Human OCI-LY10 cells (Shanghai Junrui-UFBN0102) were cultured in an RPMI 1640 culture medium containing 10% fetal bovine serum, 100 U/mL penicillin and 100 μg/mL streptomycin through monolayer culture in vitro in an incubator (37° C., 5% C02). Routine treatment was performed twice a week for passaging. At a cell saturation of 80%-90% and a required number, the cells were harvested and counted. 0.2 mL (1×10^7) of OCI-LY10 cells (together with matrigel at a volume ratio of 1:1) were subcutaneously inoculated into the right back of each mouse, and the tumor size could be measured about one week after inoculation. Tumor size was measured using a vernier caliper and tumor volume was calculated using the following formula: tumor volume=(length×width^2)/2.

BTK(wt), sequence (Q06187 whole entry): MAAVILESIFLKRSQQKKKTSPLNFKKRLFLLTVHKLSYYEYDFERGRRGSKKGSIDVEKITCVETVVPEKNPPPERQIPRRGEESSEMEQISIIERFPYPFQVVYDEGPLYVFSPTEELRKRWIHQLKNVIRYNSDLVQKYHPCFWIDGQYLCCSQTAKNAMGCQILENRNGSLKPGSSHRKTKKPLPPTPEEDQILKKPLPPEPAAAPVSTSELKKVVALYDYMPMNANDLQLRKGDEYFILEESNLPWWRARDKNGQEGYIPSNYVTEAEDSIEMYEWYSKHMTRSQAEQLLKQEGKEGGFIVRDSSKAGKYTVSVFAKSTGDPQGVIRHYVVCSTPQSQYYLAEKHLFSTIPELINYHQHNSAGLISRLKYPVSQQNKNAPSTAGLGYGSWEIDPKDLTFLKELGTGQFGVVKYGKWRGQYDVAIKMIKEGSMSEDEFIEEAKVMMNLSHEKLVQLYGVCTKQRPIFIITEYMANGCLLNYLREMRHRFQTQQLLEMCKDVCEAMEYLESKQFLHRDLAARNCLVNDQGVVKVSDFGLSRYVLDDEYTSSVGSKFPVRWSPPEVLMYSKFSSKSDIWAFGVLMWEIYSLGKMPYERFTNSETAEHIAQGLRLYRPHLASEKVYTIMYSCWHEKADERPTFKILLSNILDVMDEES

SMILES: Nc1nccn2c(C34CCC(NC(=O)CN5CCOCC5)(CC3)C4)nc(-c3ccc(C(=O)Nc4cc(C(F)(F)F)ccn4)cc3)c12 [Compound A-10-10, 4-(8-amino-3-(4-(2-morpholinoacetamido)bicyclo[2.2.1]heptan-1-yl)imidazo[1,5-a]pyrazin-1-yl)-N-(4-(trifluoromethyl)pyridin-2-yl)benzamide]
- IC50 (TMD-8): 2.9 nM
- AUC(0-inf) ([1]; male, SD, plasma, po): 73300 ng·h/mL
- Tmax ([1]; male, SD, plasma, po): 2 h
- half-life ([1]; male, SD, plasma, po): 224 min
- Cmax ([1]; male, SD, plasma, po, p.o., read-out: Cmax): 8320 ng/mL
- AUC0-INF ([1]; p.o.): 73318 ng·h/mL
- Cmax ([1]; p.o.): 8323 ng/mL
- AUC0-INF ([2]; p.o.): 14867 ng·h/mL
- Cmax ([2]; p.o.): 641 ng/mL
- AUC(0-inf) ([2]; male, beagle, plasma, po): 14900 ng·h/mL
- Tmax ([2]; male, beagle, plasma, po): 8 h
- half-life ([2]; male, beagle, plasma, po): 852 min
- Cmax ([2]; male, beagle, plasma, po, p.o., read-out: Cmax): 641 ng/mL
- IC50 (BTK(wt)): 77 nM
- xenograft tumors disappearance (OCI-LY10 xenograft tumor; 25 mg/kg group, after 28 days of administration): disappeared completely
- xenograft tumors disappearance (OCI-LY10 xenograft tumor; 50 mg/kg group, after 21 days of administration): completely disappeared
- tolerance of tumor-bearing mice (OCI-LY10 xenograft tumor; all dosages): good tolerance
- effect on body weight of tumor-bearing mice (OCI-LY10 xenograft tumor; all treatment groups): no significant weight loss
- TGI (OCI-LY10 xenograft tumor; intragastric 25 mg/kg): 110%
- TGI (OCI-LY10 xenograft tumor; intragastric 50 mg/kg): 110%
